# Measured values reported in ChEMBL document CHEMBL1201862, “PubChem BioAssay data set” (2004).
# Calls of active or inactive are those of the source.
# What was measured:
# [1] = growth suppression of PTEN-null colon cells, dose response, cell-based, HCT116 PTEN knockout (AID 1047); format: functional;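 also: HCT116 colon tumor cells with PTEN knocked out; cells exposed to compound for 60 hours before readout; potency for loss of cell viability measured by luminescence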
# [2] = biological target: Eukaryotic translation initiation factor 4E (Mus musculus, UniProt P63073); test: eIF4E–eIF4G protein interaction inhibitors, dose response, biochemical, TR-FRET (AID 855); format: functional;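 also: potency for disrupting eIF4E binding to eIF4GI seen as loss of FRET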
# [3] = biological target: T1, Carboxy-terminal domain RNA polymerase II polypeptide A small phosphatase 1 (Homo sapiens, UniProt Q9GZU7); test: inhibitors of CTDSP1, concentration-response testing, biochemical assay, absorbance-based, actives from ultra-high-throughput screening (AID 540297); format: functional
# T1 sequence (Q9GZU7 whole entry): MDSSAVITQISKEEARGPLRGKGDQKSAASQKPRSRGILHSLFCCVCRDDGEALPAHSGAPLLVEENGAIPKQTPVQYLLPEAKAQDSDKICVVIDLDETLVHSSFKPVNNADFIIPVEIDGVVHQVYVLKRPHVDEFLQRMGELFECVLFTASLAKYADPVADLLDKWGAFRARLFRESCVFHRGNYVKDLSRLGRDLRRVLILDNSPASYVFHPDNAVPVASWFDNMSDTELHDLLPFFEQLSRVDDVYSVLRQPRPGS
# [4] = HEp-2 cell cytotoxicity, dose response, cytotoxicity control for RSV inhibitor project, HTS (AID 2410); format: functional; conditions: human respiratory syncytial virus
# [5] = biological target: Cytochrome P450 2C19 (Homo sapiens, UniProt P33261); test: Cytochrome panel assay with activity outcomes. Panel member name: p450-cyp2c19 Compounds with AC50 equal or less than 10 uM are considered active; format: functional; conditions: read-out: AC50
# [6] = biological target: Melanocortin receptor 4 (Homo sapiens, UniProt P32245); format: functional, cell-based;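 also: Cell-based assay with luminescence read-out, confirmatory dose-response testing for agonist activity of biased ligands at MC4R; human U2OS cells with tagged receptor and beta-arrestin; potency of agonists that increase receptor coupling to beta-arrestin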
# [7] = biological target: T2, RNA-binding protein pos-1 (Caenorhabditis elegans, UniProt G5EF15); test: inhibitors of POS-1/mex-3 RNA binding, dose response, biochemical, fluorescence polarization (AID 1964);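 also: purified POS-1 fused to maltose binding protein made in E. coli; potency of compounds blocking POS-1 binding to fluorescent RNA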
# T2 sequence (G5EF15 whole entry): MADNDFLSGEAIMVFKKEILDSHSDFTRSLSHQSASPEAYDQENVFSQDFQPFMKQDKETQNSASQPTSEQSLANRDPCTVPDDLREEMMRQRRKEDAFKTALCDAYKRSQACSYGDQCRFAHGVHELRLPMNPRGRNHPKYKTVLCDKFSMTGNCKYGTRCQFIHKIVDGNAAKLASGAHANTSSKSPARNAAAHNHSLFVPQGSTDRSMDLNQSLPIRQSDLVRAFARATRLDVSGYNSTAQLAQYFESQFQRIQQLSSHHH
# [8] = biological target: T3, Zinc finger protein mex-5 (Caenorhabditis elegans, UniProt Q9XUB2); test: MEX-5/TCR-2 RNA interaction inhibitors, dose response, biochemical, C. elegans, fluorescence polarization (AID 1960)
# T3 sequence (Q9XUB2 whole entry): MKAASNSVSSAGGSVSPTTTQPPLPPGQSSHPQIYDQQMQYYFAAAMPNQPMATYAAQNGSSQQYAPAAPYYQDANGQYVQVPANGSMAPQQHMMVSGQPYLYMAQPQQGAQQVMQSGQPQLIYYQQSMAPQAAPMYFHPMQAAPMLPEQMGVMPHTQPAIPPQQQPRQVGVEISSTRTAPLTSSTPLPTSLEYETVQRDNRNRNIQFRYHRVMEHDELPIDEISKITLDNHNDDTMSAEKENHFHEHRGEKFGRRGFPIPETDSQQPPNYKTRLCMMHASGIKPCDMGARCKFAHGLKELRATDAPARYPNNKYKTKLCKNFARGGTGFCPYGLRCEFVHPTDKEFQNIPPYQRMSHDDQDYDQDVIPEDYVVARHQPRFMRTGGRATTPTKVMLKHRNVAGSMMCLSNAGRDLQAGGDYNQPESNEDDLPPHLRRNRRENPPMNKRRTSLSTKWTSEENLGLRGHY
# [9] = biological target: T4, Corticotropin-releasing factor receptor 2/Corticotropin-releasing factor-binding protein (Homo sapiens, UniProt P24387+Q13324); test: activators of CRF receptor 2 with binding protein – uHTS hits, confirmation (AID 602473); format: functional; conditions: read-out: EC50_Mean
# T4 sequence (Q13324 whole entry): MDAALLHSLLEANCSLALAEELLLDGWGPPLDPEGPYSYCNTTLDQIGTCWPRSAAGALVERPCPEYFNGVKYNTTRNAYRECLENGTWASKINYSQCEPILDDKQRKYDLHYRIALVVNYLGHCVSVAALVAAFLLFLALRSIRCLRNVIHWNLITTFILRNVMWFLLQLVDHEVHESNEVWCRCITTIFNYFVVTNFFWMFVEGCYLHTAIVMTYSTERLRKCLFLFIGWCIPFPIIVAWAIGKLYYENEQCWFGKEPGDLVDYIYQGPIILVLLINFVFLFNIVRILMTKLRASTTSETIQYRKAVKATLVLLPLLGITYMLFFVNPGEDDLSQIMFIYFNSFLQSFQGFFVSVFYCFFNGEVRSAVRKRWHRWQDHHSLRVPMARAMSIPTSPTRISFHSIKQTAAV
# T4 sequence (P24387 whole entry): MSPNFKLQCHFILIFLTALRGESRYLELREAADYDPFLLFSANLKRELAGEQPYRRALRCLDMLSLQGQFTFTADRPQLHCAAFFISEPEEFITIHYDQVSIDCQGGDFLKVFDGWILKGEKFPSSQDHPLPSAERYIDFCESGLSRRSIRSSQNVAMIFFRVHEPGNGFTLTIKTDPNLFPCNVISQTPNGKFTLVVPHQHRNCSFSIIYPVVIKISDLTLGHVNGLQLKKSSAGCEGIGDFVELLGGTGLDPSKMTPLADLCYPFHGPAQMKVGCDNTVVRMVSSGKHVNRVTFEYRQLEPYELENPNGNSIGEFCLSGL
# [10] = tested on: INS1; test: beta cell apoptosis inhibitors, cytokine rescue, dose response, luminescence, retest (AID 449756); format: functional, cell-based; conditions: Rattus norvegicus;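 also: cell death triggered by IL-1 beta plus TNF-alpha plus IFN-gamma mixture; protective hits raise ATP signal compared with cytokine alone wells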
# [11] = biological target: Voltage-dependent T-type calcium channel subunit alpha-1H (Homo sapiens, UniProt O95180); format: functional;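 also: channel activity triggered by adding a high calcium stimulation buffer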
# [12] = tested on: Vero; test: cells; format: functional; conditions: Chlorocebus sabaeus
# [13] = tested on: HEK293; test: cells; format: functional, cell-based; conditions: Homo sapiens
# [14] = tested on: HEK293; test: NOD2 signaling inhibitors in MDP-stimulated cells, cell-based, uHTS, luminescence (AID 2001); format: functional; conditions: Homo sapiens
# [15] = tested on: HEK293; test: cells; format: functional, cell-based; conditions: Homo sapiens; remark: listed apart in the source
# [16] = tested on: HEK293; test: cells; format: functional, cell-based; conditions: Homo sapiens; remark: listed apart in the source
# [17] = tested on: HEK293; test: NOD1 signaling inhibitors, primary screen, cell-based, luminescence, uHTS (AID 1578); format: functional; conditions: Homo sapiens
# [18] = biological target: Nucleotide-binding oligomerization domain-containing protein 2 (Homo sapiens, UniProt Q9HC29); test: NOD2 signaling inhibitors, cell-based, luminescence, uHTS, HEK293 (AID 1566); format: functional
# [19] = tested on: Streptococcus; test: Group A Streptococcus viability loss, dose response, counter-screen for streptokinase expression inhibitor project, luminescence, BacTiterGlo (AID 1915); format: functional, organism-based;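 also: potency for reduction of bacterial viability or growth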
# [20] = biological target: T5, Streptokinase A (Streptococcus pyogenes serotype M1, UniProt P10520); test: S. pyogenes streptokinase expression inhibitors, potency, dose response, plasminogen activation absorbance, OD405 (AID 1914); format: functional, Streptococcus pyogenes M1 GAS;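 also: secreted streptokinase activity via plasminogen activation per viability signal from cell pellet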
# T5 sequence (P10520 whole entry): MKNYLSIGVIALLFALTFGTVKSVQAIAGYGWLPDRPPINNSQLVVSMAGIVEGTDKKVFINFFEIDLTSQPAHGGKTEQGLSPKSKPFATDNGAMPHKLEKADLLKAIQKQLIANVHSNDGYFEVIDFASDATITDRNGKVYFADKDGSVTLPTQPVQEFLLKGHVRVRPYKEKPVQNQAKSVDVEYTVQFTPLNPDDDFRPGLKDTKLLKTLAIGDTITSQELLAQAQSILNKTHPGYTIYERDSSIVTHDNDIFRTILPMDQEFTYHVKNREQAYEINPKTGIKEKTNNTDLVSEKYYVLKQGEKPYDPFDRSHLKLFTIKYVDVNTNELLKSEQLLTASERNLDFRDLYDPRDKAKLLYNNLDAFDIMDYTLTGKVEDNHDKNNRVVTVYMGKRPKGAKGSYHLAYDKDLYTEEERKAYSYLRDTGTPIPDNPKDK
# [21] = tested on: Streptococcus sp. 'group A'; test: growth inhibition of control SK(-) GAS strain, dose response, counter-screen for streptokinase expression inhibitor project, luminescence, kanamycin, BacTiterGlo, confirmation (AID 1900); format: functional, organism-based
# Eukaryotic translation initiation factor 4E, sequence (P63073 whole entry, the tested form may be a part): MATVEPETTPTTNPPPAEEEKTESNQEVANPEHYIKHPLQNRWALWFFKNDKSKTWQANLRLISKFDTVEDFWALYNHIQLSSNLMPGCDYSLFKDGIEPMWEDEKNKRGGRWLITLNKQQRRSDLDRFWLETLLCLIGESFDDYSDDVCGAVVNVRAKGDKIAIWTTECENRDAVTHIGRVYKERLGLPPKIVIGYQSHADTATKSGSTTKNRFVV
# Voltage-dependent T-type calcium channel subunit alpha-1H, sequence (O95180 whole entry): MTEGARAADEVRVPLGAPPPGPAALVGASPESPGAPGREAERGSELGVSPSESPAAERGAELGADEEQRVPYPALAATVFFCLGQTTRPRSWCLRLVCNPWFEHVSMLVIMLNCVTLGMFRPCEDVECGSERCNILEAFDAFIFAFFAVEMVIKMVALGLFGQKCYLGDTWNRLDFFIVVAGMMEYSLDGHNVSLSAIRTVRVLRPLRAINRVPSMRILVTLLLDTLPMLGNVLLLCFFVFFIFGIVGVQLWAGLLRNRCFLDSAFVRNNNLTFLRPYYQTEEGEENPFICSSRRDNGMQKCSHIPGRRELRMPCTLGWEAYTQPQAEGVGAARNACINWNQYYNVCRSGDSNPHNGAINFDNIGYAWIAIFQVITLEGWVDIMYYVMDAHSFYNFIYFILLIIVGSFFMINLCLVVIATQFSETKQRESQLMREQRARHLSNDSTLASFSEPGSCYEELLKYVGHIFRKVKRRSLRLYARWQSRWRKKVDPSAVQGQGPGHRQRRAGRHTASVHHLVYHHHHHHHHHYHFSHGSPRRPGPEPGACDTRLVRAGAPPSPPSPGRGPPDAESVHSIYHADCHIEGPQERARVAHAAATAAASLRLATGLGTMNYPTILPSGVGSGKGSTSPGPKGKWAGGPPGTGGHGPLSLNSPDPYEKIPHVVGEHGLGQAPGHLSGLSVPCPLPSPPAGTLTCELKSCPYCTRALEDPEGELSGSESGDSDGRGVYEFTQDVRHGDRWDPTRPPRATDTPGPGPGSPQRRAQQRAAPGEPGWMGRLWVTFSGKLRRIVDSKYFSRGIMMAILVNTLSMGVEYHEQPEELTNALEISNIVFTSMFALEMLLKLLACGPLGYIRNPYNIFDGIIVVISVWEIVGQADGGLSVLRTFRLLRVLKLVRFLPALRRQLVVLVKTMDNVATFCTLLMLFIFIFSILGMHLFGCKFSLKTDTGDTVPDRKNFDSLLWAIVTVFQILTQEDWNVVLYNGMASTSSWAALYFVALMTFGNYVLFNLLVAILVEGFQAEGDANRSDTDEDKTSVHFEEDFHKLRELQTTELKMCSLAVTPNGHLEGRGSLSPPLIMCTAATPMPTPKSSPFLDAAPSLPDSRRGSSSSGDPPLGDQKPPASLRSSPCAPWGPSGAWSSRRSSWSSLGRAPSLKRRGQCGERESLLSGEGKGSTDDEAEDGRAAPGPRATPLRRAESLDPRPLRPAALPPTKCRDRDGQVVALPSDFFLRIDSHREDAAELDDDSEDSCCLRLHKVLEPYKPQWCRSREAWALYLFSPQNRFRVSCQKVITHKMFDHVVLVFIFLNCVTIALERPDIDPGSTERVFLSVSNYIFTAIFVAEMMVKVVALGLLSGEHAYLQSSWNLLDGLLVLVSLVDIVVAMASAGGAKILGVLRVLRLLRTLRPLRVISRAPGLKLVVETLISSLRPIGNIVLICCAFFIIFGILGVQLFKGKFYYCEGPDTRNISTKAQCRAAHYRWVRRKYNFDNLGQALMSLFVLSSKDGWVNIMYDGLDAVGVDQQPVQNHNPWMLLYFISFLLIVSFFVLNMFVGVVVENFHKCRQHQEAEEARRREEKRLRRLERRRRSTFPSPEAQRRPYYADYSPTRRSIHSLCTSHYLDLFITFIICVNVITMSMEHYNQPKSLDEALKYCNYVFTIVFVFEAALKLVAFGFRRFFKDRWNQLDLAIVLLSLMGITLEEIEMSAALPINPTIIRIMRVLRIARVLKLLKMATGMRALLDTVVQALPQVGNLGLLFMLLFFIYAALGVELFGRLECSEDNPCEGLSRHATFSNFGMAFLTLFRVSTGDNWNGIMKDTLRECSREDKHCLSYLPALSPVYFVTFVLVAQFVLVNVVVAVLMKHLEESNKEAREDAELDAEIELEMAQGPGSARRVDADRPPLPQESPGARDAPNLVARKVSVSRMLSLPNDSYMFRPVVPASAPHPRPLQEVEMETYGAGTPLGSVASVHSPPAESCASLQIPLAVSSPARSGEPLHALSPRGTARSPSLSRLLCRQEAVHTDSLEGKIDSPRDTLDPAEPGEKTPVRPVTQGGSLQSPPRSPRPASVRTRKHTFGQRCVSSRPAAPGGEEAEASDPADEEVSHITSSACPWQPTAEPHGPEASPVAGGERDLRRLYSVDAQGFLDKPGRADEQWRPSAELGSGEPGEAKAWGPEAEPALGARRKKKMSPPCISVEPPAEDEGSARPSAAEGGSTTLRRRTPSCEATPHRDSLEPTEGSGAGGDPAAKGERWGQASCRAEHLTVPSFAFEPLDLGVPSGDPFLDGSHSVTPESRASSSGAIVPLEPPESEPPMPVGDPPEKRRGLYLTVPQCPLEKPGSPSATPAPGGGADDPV
# Melanocortin receptor 4, sequence (P32245 whole entry, the tested form may be a part): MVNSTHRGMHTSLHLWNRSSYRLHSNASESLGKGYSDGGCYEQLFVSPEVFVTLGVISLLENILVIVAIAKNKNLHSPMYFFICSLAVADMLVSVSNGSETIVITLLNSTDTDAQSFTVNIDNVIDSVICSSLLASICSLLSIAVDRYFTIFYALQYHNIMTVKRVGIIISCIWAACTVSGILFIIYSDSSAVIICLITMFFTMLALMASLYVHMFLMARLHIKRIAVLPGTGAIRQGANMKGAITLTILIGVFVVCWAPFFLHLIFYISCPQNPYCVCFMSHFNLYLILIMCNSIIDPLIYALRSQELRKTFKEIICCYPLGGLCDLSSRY
# Cytochrome P450 2C19, sequence (P33261 whole entry): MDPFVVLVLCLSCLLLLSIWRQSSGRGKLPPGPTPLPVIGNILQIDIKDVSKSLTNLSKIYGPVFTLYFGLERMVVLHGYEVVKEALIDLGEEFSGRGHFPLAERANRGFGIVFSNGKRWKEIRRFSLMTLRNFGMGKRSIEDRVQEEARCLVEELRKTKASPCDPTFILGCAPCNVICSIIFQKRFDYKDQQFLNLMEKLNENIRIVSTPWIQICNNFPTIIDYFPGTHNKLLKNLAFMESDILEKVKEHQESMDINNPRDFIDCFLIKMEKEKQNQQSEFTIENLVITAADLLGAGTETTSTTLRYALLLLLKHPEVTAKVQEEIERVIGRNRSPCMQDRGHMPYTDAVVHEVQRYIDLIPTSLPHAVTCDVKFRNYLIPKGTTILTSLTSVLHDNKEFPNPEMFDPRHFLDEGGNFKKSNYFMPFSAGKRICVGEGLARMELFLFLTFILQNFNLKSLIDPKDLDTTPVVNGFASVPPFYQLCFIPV
# Nucleotide-binding oligomerization domain-containing protein 2, sequence (Q9HC29 whole entry, the tested form may be a part): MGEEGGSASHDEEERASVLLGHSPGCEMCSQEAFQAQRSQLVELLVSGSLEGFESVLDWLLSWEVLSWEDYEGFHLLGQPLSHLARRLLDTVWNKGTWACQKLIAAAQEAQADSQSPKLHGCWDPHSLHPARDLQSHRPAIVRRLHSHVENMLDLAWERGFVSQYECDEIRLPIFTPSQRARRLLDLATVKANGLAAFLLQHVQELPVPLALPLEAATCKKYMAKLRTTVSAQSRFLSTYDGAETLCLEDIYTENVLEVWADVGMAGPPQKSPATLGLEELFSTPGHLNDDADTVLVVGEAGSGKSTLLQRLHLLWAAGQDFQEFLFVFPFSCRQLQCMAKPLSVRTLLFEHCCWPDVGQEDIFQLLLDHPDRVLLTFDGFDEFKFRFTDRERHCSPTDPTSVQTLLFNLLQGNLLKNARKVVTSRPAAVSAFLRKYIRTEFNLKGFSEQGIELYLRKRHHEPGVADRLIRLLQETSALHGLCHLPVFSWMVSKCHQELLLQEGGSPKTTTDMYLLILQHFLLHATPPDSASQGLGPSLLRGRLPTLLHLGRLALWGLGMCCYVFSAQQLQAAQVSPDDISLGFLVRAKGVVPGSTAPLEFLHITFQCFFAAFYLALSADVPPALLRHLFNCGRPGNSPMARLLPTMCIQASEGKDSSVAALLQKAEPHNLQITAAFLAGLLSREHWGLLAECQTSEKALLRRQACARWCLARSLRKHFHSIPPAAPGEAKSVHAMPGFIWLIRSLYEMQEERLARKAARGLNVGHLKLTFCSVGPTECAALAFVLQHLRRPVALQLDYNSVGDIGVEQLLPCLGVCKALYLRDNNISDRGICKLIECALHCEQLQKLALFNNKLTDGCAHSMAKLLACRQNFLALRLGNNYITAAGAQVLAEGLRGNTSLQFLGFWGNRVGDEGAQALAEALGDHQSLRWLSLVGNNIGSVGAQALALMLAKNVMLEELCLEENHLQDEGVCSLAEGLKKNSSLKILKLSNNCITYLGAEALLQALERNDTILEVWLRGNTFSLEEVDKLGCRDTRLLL
smiles,measurement,setting,value
Cc1ccc(Cn2nc(C)c(NC(=O)CSc3nc4c(c(C(F)(F)F)n3)CCc3ccccc3-4)c2C)cc1,EC50,[1],21 µM (active)
same,IC50,[2],> 64 µM (inactive)
COc1ccccc1OCCOc1ccc(/C=C2\C(=N)N3N=C(S(C)(=O)=O)SC3=NC2=O)cc1,IC50,[3],3.6 µM (active)
same,CC50,[4],22.5 µM (active)
O=C(COC(=O)c1cc(-c2ccccc2Cl)nc2ccccc12)Nc1ncc(C(F)(F)F)cc1Cl,IC50,[3],39 µM (active)
COc1ccc(NC2=NCC(=O)N2Cc2cccs2)cc1,IC50,[2],> 64 µM (inactive)
same,AC50,[5],8.91 µM (inconclusive)
NC(c1csc(NC(=O)Nc2cccc(Cl)c2)n1)C1CCCCC1 (stereo unspecified),EC50,[6],> 89.2 µM (inactive)
Cc1ccc(/N=C/c2nc(-c3ccc(C)cc3)oc2O)cc1,IC50,[2],50 µM (inactive)
same,EC50,[7],32.6 µM (active)
same,EC50,[8],68.7 µM (active)
CNC(=O)c1sc(N2N=C3/C(=C/c4ccccc4)CCCC3C2c2ccccc2)nc1C (stereo unspecified),EC50,[9],16.1 µM (active)
same,AC50,[10],6.72 µM (active)
same,EC50,[11],9.13 µM (active)
Cc1ccc(C(=O)Cn2c(C(=O)/C=C/c3ccccc3)nc3ccccc32)cc1,CC50,[12],16.4 µM (active)
same,EC50,[6],> 89.2 µM (inactive)
COc1ccccc1N1CCN(c2ncnc3sc(C)c(-c4ccccc4)c23)CC1,IC50,[13],17.2 µM (active)
same,IC50,[14],6.98 µM (active)
same,IC50,[15],> 20 µM (inactive)
same,IC50,[16],6.68 µM (active)
same,EC50,[17],5.48 µM (active)
same,EC50,[18],11.5 µM (active)
COc1ccc(/C=N/NC(=O)Cc2csc(Nc3cccc(C(F)(F)F)c3)n2)cc1C,EC50,[19],> 150 µM (not active)
same,EC50,[11],4.82 µM (active)
same,EC50,[20],10.4 µM (active)
same,EC50,[21],9.89 µM (active)
